Source: article PMC8915830 (Proceedings of the National Academy of Sciences of the …, 2022)

Assays:
hGHSR1aWT [1] = target: T1, hGHSR1aWT (Homo sapiens, UniProt Q92847); experiment: iCa2+ in WT or Gαq/11 KO HEK293/S cells; type: cell-based; conditions: 10 μM ligand; versus WT cells
hGHSR1aWT [2] = target: T1, hGHSR1aWT; experiment: Gαq/11-dependent intracellular Ca2+ mobilization; type: cell-based; conditions: for activity of the pure/resynthesized molecule: screening aliquots contained oxidated impurities

T1 sequence (Q92847 whole entry): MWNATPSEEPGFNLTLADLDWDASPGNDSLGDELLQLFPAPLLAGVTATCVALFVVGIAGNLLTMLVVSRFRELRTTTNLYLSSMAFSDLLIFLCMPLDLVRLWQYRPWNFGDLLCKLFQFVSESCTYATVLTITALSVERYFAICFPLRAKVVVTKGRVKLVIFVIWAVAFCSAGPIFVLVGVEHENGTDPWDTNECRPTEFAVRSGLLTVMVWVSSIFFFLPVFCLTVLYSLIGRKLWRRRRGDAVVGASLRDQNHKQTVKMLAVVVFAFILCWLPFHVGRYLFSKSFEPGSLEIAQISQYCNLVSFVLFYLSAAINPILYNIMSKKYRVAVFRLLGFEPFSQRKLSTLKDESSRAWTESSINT

| SMILES | activity of the pure/resynthesized molecule (hGHSR1aWT [2]) | also measured |
| --- | --- | --- |
| C[C@@H](O)CNC(C)(C)CC(=O)N[C@@H]1CCc2ccccc2N(Cc2ccc(-c3ccccc3-c3nn[nH]n3)cc2)C1=O [L585] |  | ligand-induced iCa2+ in Gαq/11 KO cells (hGHSR1aWT [1]): abolished |
| CCOc1ccc(C2c3c(oc4ccc(C)cc4c3=O)C(=O)N2CCCN(C)C)cc1OC (stereo not shown) [N1956] | could not be confirmed |  |
| COc1ccc(C2c3c(oc4ccc(Cl)cc4c3=O)C(=O)N2CCCN(C)C)cc1OC (stereo not shown) [N6164] | could not be confirmed |  |
| Cc1nc2ccc(Oc3ccc(F)cc3)cc2c(=O)n1C[C@H]1CCCN(C(C)C)C1 [YIL781] |  | inhibition of iCa2+ evoked by EC80 N8279, ghrelin or L585 (hGHSR1aWT [2]; 30 min antagonist pretreatment): competitively inhibited |
